The text below walks through data of US6369101B1, “Therapeutic method to treat herpes virus infection” (Regents of the University of Minnesota, priority 1999, dated 2002).

In brackets after ≈: the same amount, converted by molar mass. Entries after “also recorded” stand apart in the source; their conditions may differ.

The nature of series [1]: CC50 in MEF cells (Table 3). The class given is cell-based. As to conditions: Mouse Cytomegalovirus section of Table 3.
Series [2] is described as follows: CC50 in HFF cells (Table 3). The class given is cell-based, human. The settings on record: human, HFF cells, Human Cytomegalovirus section of Table 3; read-out: CC50. On the procedure: The cells were observed daily for any change in morphology. The rounding and lysis of cells were observed if the compound has cytotoxic effect. At the end of this time, the media-drug solution was removed and the cells washed. […] The cells-media mixture was then pipetted up and down several times to resuspend the cells and 0.2 ml of the cell suspension was added to 9.8 ml of trypan blue and cells were counted using hemocytometer. Each sample was counted three times with three replicate wells per sample.

The next series relates to Human Cytomegalovirus. Nature of the series: CPE inhibition in stationary cells (visual), HCMV in HFF cells. As to conditions: Human betaherpesvirus 5, test compounds in DMSO, read-out: EC50. The class given is cell-based.
A further series has as its system Mouse Cytomegalovirus. The experiment in a line: CPE inhibition in stationary cells (visual), MCMV in MEF cells. The format is cell-based. The settings on record: test compounds in DMSO, read-out: EC50.
A further series deals with HSV-1 strain F. Nature of the series: CPE inhibition, HSV-1 strain F in HEp-2 cells. Also: key: +++ = Complete cytopathic effect; ++ = Moderate cytopathic effect; + = Minimum cytopathic effect; − = No cytopathic effect. The format is cell-based, herpes simplex virus type 1. As to conditions: conc. per compound (ng/ml). An excerpt: (§1) Human laryngeal epithelial carcinoma cells (HEp-2, ATCC, Rockville, Md.) were used for testing of antiviral compounds by cytopathic effect (CPE) inhibition and plaque reduction assay. Primary human foreskin fibroblast cells (HFF) obtained from Dr. E. R. Kern (Department of Pediatrics, University of Alabama Medical School, 309 Bevill Biomedical Research Building, 845 19th Street South, Birmingham, Ala., 35294-2170), were used for cytopathic effect (CPE) inhibition assay. HEp-2, African green monkey kidney cells (Vero, ATCC), HFF and primary rabbit kidney cells were used to determine the cytotoxic effect of compounds of formula I. These cells were propagated in Dulbeco's modified Eagle's medium (DMEM) (Sigma, USA) supplemented with 10% inactivated fetal calf serum (FCS), 25 mM HEPES, 0.2% sodium bicarbonate and 1% penicillin/-streptomycin at 37° C. in the presence of 5% CO2.
(§2) The antiviral activity of the test compounds was determined against HSV-1 strain F, HSV-2 strain G (ATCC), HSV-1 strain E-377 and HSV-2 strain MS (Dr. E. R. Kern, see above), CMV strain AD 169 (NIH), HCMV (NIH), MCMV (NIH), and VZV strain Ellen (NIH). Highly infective virus stocks of HSV-1 and HSV-2 were prepared by infecting a confluent monolayer of HEp-2 (ATCC) or HFF in 150 cm^2 plastic tissue culture flasks (Falcon, USA) at a multiplicity of infection of 0.5 in DMEM supplemented with 10% inactivated fetal calf serum and 1% penicillin/streptomycin at 37° C. in the presence of 5% CO2. The infected cells were disrupted through three freeze/thaw cycles, and viruses were clarified from large cell debris by low speed centrifugation at 3000 rpm for 10 minutes. The virus suspension was separated, aliquoted and stored at −80° C. until assayed or used for animal infection. The stock HSV-1 (E377) and HSV-2 (MS strain) contained 3.5×10^8 and 1.1×10^7 pfu/ml respectively.
(§3) Low passage HFF cells were seeded into 96-well tissue culture plates 24 hours prior to use at a cell concentration of 2.5×10^4 cells per ml in 0.2 ml of DMEM supplemented with 10% fetal calf serum. After 24 hours of incubation at 37° C. in the presence of 5% CO2, medium was removed and the test compounds were diluted two-fold in DMEM in the 96-well tissue culture plate containing monolayer. […] For both HSV-1 and HSV-2 assays, the virus concentration utilized was 1000 pfu/ml and for HCMV, MCMV, and VZV assay 2500 pfu/ml were used. The plates were then incubated at 37° C. in the presence of 5% CO2 for two to three days for HSV-1 and HSV-2, 10 days for VZV and 14 days for HCMV and MCMV. The virus induced cytopathic effect (CPE) was monitored microscopically every day. CPE of HSV-1 was recognized by cell rounding and clumping, while HSV-2 formed large syncytia along with rounding and clumping of cells. […] EC50s were estimated from graphical plots of percent CPE against the concentration of the test compounds. The EC50s for each compound are the mean of EC50s for three or more independent experiments. After three days of incubation period, media was aspirated and the cells stained with a 0.1% crystal violet solution for 30 minutes. The stain was then removed and the plates were rinsed with tap water, air dried and retained.

In another series the test system is HSV-1 strain E-377. Nature of the series: CPE inhibition assay, HSV-1 E377 in human foreskin fibroblast cells. As to Qualitative CPE at 2.0 ml dose HSV-1 E377: key: +++ = Complete cytopathic effect; ++ = Moderate cytopathic effect; + = Minimum cytopathic effect; − = No cytopathic effect. The class given is cell-based, herpes simplex virus type 1. On the procedure:
(§4) Stock solutions of the compounds used for the testing of antiviral activity against HSV-1 and HSV-2 were prepared in distilled water, filtered through 0.2 μm filter (Acrodisco®, Gelman Sciences, USA) and stored at room temperature until used.
as §1, §2, §3

A short description of series [3]: Cytotoxic effect in Vero cell line. The format is cell-based, African green monkey. As to conditions: African green monkey, Vero cells; Vero cell line. The procedure: (§5) Human laryngeal epithelial carcinoma cells (HEp-2, ATCC, Rockville, Md.) were used for testing of antiviral compounds by cytopathic effect (CPE) inhibition and plaque reduction assay. […] HEp-2, African green monkey kidney cells (Vero, ATCC), HFF and primary rabbit kidney cells were used to determine the cytotoxic effect of compounds of formula I. These cells were propagated in Dulbeco's modified Eagle's medium (DMEM) (Sigma, USA) supplemented with 10% inactivated fetal calf serum (FCS), 25 mM HEPES, 0.2% sodium bicarbonate and 1% penicillin/-streptomycin at 37° C. in the presence of 5% CO2.
(§6) HFF, Vero and HEp-2 cells were seeded in 24-well tissue culture plates at a concentration of […] in DMEM containing 10% FCS and incubated for 24 hours at 37° C. in the presence of 5% CO2. To the monolayer of these cells 0.5, 1.0, 1.5 and 2.0 ml of solution of antiviral compounds were added in the respective wells in duplicate and the cells were then incubated in a 5% CO2 incubator at 37° C. for 72 hours. The cells were observed daily for any change in morphology. […] At the end of this time, the media-drug solution was removed and the cells washed. One ml of 0.25% trypsin was added to each well and incubated until the cells start to come off of the plate. The cells-media mixture was then pipetted up and down several times to resuspend the cells and 0.2 ml of the cell suspension was added to 9.8 ml of trypan blue and cells were counted using hemocytometer. Each sample was counted three times with three replicate wells per sample.

For another series, the system named is Vero cells. The experiment in a line: Cytotoxic effect in Vero cell line. The format is cell-based, African green monkey. As to conditions: African green monkey kidney (Vero) cells. The procedure:
as §5, §6

A further series deals with HSV-2 strain G. Nature of the series: CPE inhibition, HSV-2 strain G in HEp-2 cells. Also: key: +++ = Complete cytopathic effect; ++ = Moderate cytopathic effect; + = Minimum cytopathic effect; − = No cytopathic effect. The class given is cell-based, herpes simplex virus type 2. As to conditions: conc. per compound (ng/ml).
Source text: as §1, §2, §3

The test system of another series is HSV-2 strain MS. The experiment in a line: CPE inhibition assay, HSV-2 MS in human foreskin fibroblast cells. As to Qualitative CPE at 2.0 ml dose HSV-2 MS: key: +++ = Complete cytopathic effect; ++ = Moderate cytopathic effect; + = Minimum cytopathic effect; − = No cytopathic effect. The class given is cell-based, herpes simplex virus type 2. On the procedure:
as §4, §1, §2, §3

Series [4] concerns Human laryngeal epithelial carcinoma cells (HEp-2). Nature of the series: Cytotoxicity in HEp-2 cells. The class given is cell-based. The procedure:
as §5, §6

The test system of the next series is HSV-2 (strain G). Nature of the series: Plaque reduction assay, HSV-2 strain G in HEp-2 cells. As to conditions: conc. per compound (ng/ml) (Acyclovir 250), HSV-2 virus control 47. The format is cell-based, herpes simplex virus type 2. On the procedure: HEp-2 cells were grown to monolayer in 24 well tissue culture plates in DMEM containing 10% fetal calf serum at 37° C. for 24-36 hours in the presence of 5% CO2. The monolayer of HEp-2 cells was infected with 0.1 ml of HSV- 1 (strain F) or HSV-2 (strain G) containing 100 pfu. The viruses were allowed to adsorb for 1 hour at 37° C. in the presence of 5% CO2. All wells containing virus infected cells except virus control were overlaid with 0.9 ml of DMEM and 1 ml of test compound. The virus control and cell control received DMEM only. All microtiter plates were incubated at 37° C. in the presence of 5% CO2 and observed twice daily for 72 hours for viral CPE. At the end of the experiment, plates were stained with 0.1% crystal violet and the results were quantified by counting plaque forming units.

Series [5] can be described thus: Cytotoxic effect in primary rabbit kidney cells. As to conditions: primary rabbit kidney cells; Primary Rabbit Kidney cell line. The class given is cell-based. On the procedure: as §5, §6
For series [6], the system named is Primary Rabbit Kidney cells. Nature of the series: Cytotoxic effect in primary rabbit kidney cells. The class given is cell-based. The settings on record: primary rabbit kidney cells. The procedure: as §5, §6
Series [7] in a line: Cell proliferation assay (cytotoxicity) in HFF cells. The format is cell-based, human. As to conditions: primary human foreskin fibroblast (HFF) cells; Human foreskin fibroblast cells; reduces growth of uninfected cells by 50%. The procedure:
as §5, §6

Series [8] has as its system Primary human foreskin fibroblast cells (HFF). The series is described as above. The format is cell-based. As to conditions: HFF cells; solution conc. per compound (ng/ml) (Acyclovir 250); 2.0 ml dose. On the procedure:
as §5, §6

Setting [9] is: HFF cells, solution conc. per compound (ng/ml) (Acyclovir 250), 2.0 ml dose.

Take `Nc1nc(O)c2ncn(COC(CO)CO)c2n1` [Ganciclovir ®, Ganciclovir, reference compound]: the CC50 in series [1] was > 100 µg/mL. The CC50 at 72 h in series [2] was > 100 µg/mL. In addition, the EC50 with Human Cytomegalovirus was determined as 0.1 µg/mL (≈ 0.392 µM); in the series on Mouse Cytomegalovirus it was 0.9 µg/mL (≈ 3.53 µM).

For the compound `CC1(C)CCC23CC[C@]4(C)C(CCC5[C@@]6(C)CCC(O)C(C)(C)C6CC[C@]54C)C2C1OC3` (stereo partly drawn) [Allobetulin, 3β-hydroxy-19αH-19,28-epoxy-oleanane], the “Cytopathic Effect (CPE) Inhibition HSV-1 Strain F” value in the series with HSV-1 strain F is listed as “++”. Further, the “EC50 HSV-1 E377” value in the series on HSV-1 strain E-377 (CPE inhibition in HFF cells) is 0.3 µg/mL (≈ 0.678 µM). Further, in the series with HSV-1 strain E-377 (setting [9]), the “Qualitative CPE at 2.0 ml dose HSV-1 E377” value is listed as “+++”. The EC50 in the series with HSV-1 strain E-377 (Human alphaherpesvirus 1, HFF, CPE inhibition in HFF cells, read-out: EC50 HSV-1 E377) was ~0.3 µg/mL (≈ 0.678 µM); with HSV-2 strain MS (Human alphaherpesvirus 2, HFF, CPE inhibition in HFF cells, read-out: EC50 HSV-2 MS), ~0.225 µg/mL (≈ 0.508 µM). The CC50 at 72 h in series [3] was 0.3 µg/mL (≈ 0.678 µM); in series [5], > 0.3 µg/mL; in series [7], 0.3 µg/mL (≈ 0.678 µM). In addition, the “cytotoxicity (in words)” value with Vero cells was “generally not toxic”; in series [4] (HEp-2 (human epithelial) cells) it was “less cytotoxicity; also recorded: generally not toxic”; in series [6] it was “No cytotoxicity; also recorded: generally not toxic”. For the same compound, the “Cytopathic Effect (CPE) Inhibition HSV-2 Strain G” value in the series on HSV-2 strain G is given as “++”. Besides, the “EC50 HSV-2 MS” value with HSV-2 strain MS (CPE inhibition in HFF cells) came to 0.225 µg/mL (≈ 0.508 µM). In addition, the “Qualitative CPE at 2.0 ml dose HSV-2 MS” value in the series on HSV-2 strain MS (setting [9]) is listed as “++”. Moreover, in [4] (HEp-2 cells, conc. per compound (ng/ml)), the “Cell Cytotoxicity” value is “−”. The “Plaque Reduction Assay Average pfu/10^5 Cells HSV-2 Strain G” value in the series on HSV-2 (strain G) is given as 17 pfu/10^5 Cells. The “Qualitative Cytotoxic Effect at 2.0 ml dose” value in series [8] is given as “−”.

As usually defined, the CC50 is the concentration giving 50% cytotoxicity. One may read the EC50 as the concentration at which the effect is half-maximal.
